From patent publication US20240116946A1 (Gilead Sciences, Inc., priority 2022, published 2024)
Like-named read-outs stand apart in the source and are kept apart here.

How the values were obtained:
[1] = target: recombinant SARS-CoV-2 Main protease (Mpro) (Severe acute respiratory syndrome coronavirus 2 (2019-nCoV) (SARS-CoV-2), UniProt P0DTD1); experiment: Cov Mpro Biochemical IC50 Assay
SARS-CoV-2-NLuc = experiment: microbe, parasite or virus in culture; assay type: cell-based, SARS Coronavirus 2
[2] = recombinant SARS-CoV-2 Mpro 7.5 nM, fluorogenic peptide substrate 40 μM, read-out: MPro IC50
[3] = Severe acute respiratory syndrome coronavirus, 48 h, read-out: MPro EC50
[4] = recombinant SARS-CoV-2 Mpro, fluorogenic peptide substrate, read-out: MPro IC50
[5] = Severe acute respiratory syndrome coronavirus, 48 h; read-out: MPro EC50

Cc1ccc(-c2cc3[nH]c(=O)n(-c4cncc5cnn(C)c45)c(=O)c3s2)c(C#N)c1 [Example 841]
IC50 [1, 2]: 0.134 µM
EC50 (SARS-CoV-2-NLuc; [3]): 0.523 µM

COc1ccc(Cl)c(-c2ccc3c(=O)n(-c4cncc5ccccc45)c(=O)[nH]c3c2)c1F [Example 322]
IC50 [1, 4]: 3.53 µM
EC50 (SARS-CoV-2-NLuc; [3]): 1.3 µM

CS(=O)(=O)c1cncc(-c2cccc(Cl)c2-c2ccc3c(=O)n(-c4cncc5ccccc45)c(=O)[nH]c3c2)c1 [Example 203]
IC50 [1, 4]: 0.0111 µM
EC50 (SARS-CoV-2-NLuc; [3]): 0.0269 µM

COc1cc(-c2cc3c(s2)c(=O)n(-c2cncc4cnn(C)c24)c(=O)n3C2CC2C#N)c(Cl)cc1F (stereo not shown) [Example 1005, 2-(6-(2-chloro-4-fluoro-5-methoxyphenyl)-3-(1-methyl-1H-pyrazolo[4,3-c]pyridin-7-yl)-2,4-dioxo-3,4-dihydrothieno[3,2-d]pyrimidin-1(2H)-yl)cyclopropane-1-carbonitrile]
IC50 [1, 2]: 0.0385 µM
EC50 (SARS-CoV-2-NLuc; read-out: MPro EC50): 0.0529 µM

CCn1c(C)nc2cncc(-n3c(=O)c4sc(-c5cc(OC)c(F)cc5Cl)cc4n(CCC#N)c3=O)c21 [Example 940]
IC50 [1, 2]: 0.00528 µM
EC50 (SARS-CoV-2-NLuc; [3]): 0.0236 µM

CN(C)C(=O)c1cccc(-c2cccc(Cl)c2-c2ccc3c(=O)n(-c4cncc5ccccc45)c(=O)[nH]c3c2)c1 [Example 188]
IC50 [1, 4]: 0.121 µM
EC50 (SARS-CoV-2-NLuc; [3]): 0.0594 µM

O=c1[nH]c2cc(-c3c(Cl)cccc3-c3ccc4c(c3)OC(F)(F)O4)sc2c(=O)n1-c1cncc2ccccc12 [Example 353]
IC50 [1, 4]: 0.143 µM
EC50 (SARS-CoV-2-NLuc; [3]): 0.0315 µM

CNC(=O)c1cccc(-c2cccc(Cl)c2-c2ccc3c(=O)n(-c4cncc5ccccc45)c(=O)[nH]c3c2)c1 [Example 189]
IC50 [1, 4]: 0.00858 µM
EC50 (SARS-CoV-2-NLuc; [3]): 0.0182 µM

COc1ccc(C#N)c(-c2cc3[nH]c(=O)n(-c4cncc5nc(C67CC(F)(C6)C7)n(C)c45)c(=O)c3s2)c1 [Example 437]
IC50 [1, 2]: 0.535 µM
EC50 (SARS-CoV-2-NLuc; [3]): 10.6 µM

COc1cc(-c2cc3c(s2)c(=O)n(-c2cncc4cnc(C)n24)c(=O)n3CCC#N)c(Cl)cc1F [Example 980]
IC50 [1, 2]: 0.00764 µM
EC50 (SARS-CoV-2-NLuc; [3]): 0.0104 µM

O=c1[nH]c2cc(-c3c(Cl)cccc3-c3cnn4c3OCCC4)ccc2c(=O)n1-c1cncc2ccccc12 [Example 325]
IC50 [1, 4]: 0.0158 µM
EC50 (SARS-CoV-2-NLuc; [3]): 0.0279 µM

COc1cc(-c2cc3[nH]c(=O)n(-c4cncc5sc(C#N)c(C)c45)c(=O)c3s2)c(Cl)cc1F [Example 1051]
IC50 [1, 2]: 0.00682 µM
EC50 (SARS-CoV-2-NLuc; [3]): 0.00516 µM

COc1ccc(C#N)c(-c2cc3[nH]c(=O)n(-c4cncc5cnn(CC(F)(F)F)c45)c(=O)c3s2)c1 [Example 508]
IC50 [1, 2]: 0.0212 µM
EC50 (SARS-CoV-2-NLuc; [3]): 0.205 µM

O=c1[nH]c2cc(-c3c(Cl)cccc3-c3nc4ccccc4[nH]3)ccc2c(=O)n1-c1cncc2ccccc12 [Example 161, 7-[2-(1H-benzimidazol-2-yl)-6-chloro-phenyl]-3-(4-isoquinolyl)-1H-quinazoline-2,4-dione]
IC50 [1, 4]: 0.0271 µM
EC50 (SARS-CoV-2-NLuc; [3]): 0.129 µM

Cn1ncc2cncc(-n3c(=O)c4sc(-c5cc(C#N)ccc5Cl)cc4n(CCC#N)c3=O)c21 [Example 811]
IC50 [1, 2]: 0.0132 µM
EC50 (SARS-CoV-2-NLuc; [3]): 0.0535 µM

O=c1[nH]c2cc(-c3ccsc3Cl)sc2c(=O)n1-c1cncc2ccccc12 [Example 21]
IC50 [1, 4]: 0.0325 µM
EC50 (SARS-CoV-2-NLuc; [3]): 0.204 µM

N#Cc1cc(F)c(F)cc1-c1ccc2c(=O)n(-c3cncc4ccccc34)c(=O)[nH]c2c1 [Example 323]
IC50 [1, 4]: 0.112 µM
EC50 (SARS-CoV-2-NLuc; [3]): 0.557 µM

Cc1c2c(-n3c(=O)c4sc(-c5cc(F)c(F)cc5Cl)cc4n(CCC#N)c3=O)cncc2nn1C [Example 798]
IC50 [1, 2]: 0.0387 µM
EC50 (SARS-CoV-2-NLuc; [5]): 0.137 µM

COc1cc(-c2cc3c(s2)c(=O)n(-c2cncc4cnn(C)c24)c(=O)n3CC(C)(C)C#N)c(Cl)cc1F [Example 697]
IC50 [1, 2]: 0.00901 µM
EC50 (SARS-CoV-2-NLuc; [3]): 0.00962 µM

N#CCCn1c(=O)n(-c2cncc(Cl)c2)c(=O)c2sc(-c3ccccc3C#N)cc21 [Example 863]
IC50 [1, 2]: 0.0133 µM
EC50 (SARS-CoV-2-NLuc; [5]): 0.0376 µM

COc1cc(-c2cc3c(s2)c(=O)n(-c2cc(C)cnn2)c(=O)n3CCC#N)c(Cl)cc1F [Example 931]
IC50 [1, 2]: 0.00253 µM
EC50 (SARS-CoV-2-NLuc; [3]): 0.00548 µM

O=c1c2sc(-c3ncco3)cc2n(CC2CCCC2)c(=O)n1-c1cncc2ccccc12 [Example 170, 1-(cyclopentylmethyl)-3-(isoquinolin-4-yl)-6-(oxazol-2-yl)thieno[3,2-d]pyrimidine-2,4(1H,3H)-dione]
IC50 [1, 4]: 0.192 µM
EC50 (SARS-CoV-2-NLuc; [3]): 0.421 µM

COc1ccc(Cl)c(-c2cc3[nH]c(=O)n(-c4cncc5c4cnn5C)c(=O)c3s2)c1 [Example 497]
IC50 [1, 2]: 0.00624 µM
EC50 (SARS-CoV-2-NLuc; [5]): 0.0192 µM

COc1cc(Cl)c(-c2cc3[nH]c(=O)n(-c4cncc5ccccc45)c(=O)c3s2)cc1C [Example 723]
IC50 [1, 2]: 0.0211 µM
EC50 (SARS-CoV-2-NLuc; [3]): 0.0172 µM

COc1cc(-c2cc3c(s2)c(=O)n(-c2cnccc2C(F)(F)F)c(=O)n3CCC#N)c(C#N)cc1F [Example 862]
IC50 [1, 2]: 0.0953 µM
EC50 (SARS-CoV-2-NLuc; [3]): 0.21 µM

COc1cc(-c2cc3c(s2)c(=O)n(-c2cncc4cccnc24)c(=O)n3CCC#N)c(Cl)cc1F (single isomer, unassigned) [Example 1036, 3-(6-(2-chloro-4-fluoro-5-methoxyphenyl)-3-(1,6-naphthyridin-8-yl)-2,4-dioxo-3,4-dihydrothieno[3,2-d]pyrimidin-1(2H)-yl)propanenitrile]
IC50 [1, 2]: 0.00142 µM
EC50 (SARS-CoV-2-NLuc; read-out: MPro EC50): 0.00066 µM

O=c1[nH]c2cc(-c3ccccc3Cl)sc2c(=O)n1-c1cncc2ccc(N3CC(F)(F)C3)cc12 [Example 420]
IC50 [1, 2]: 0.0108 µM
EC50 (SARS-CoV-2-NLuc; [3]): 0.0509 µM

COc1cnc(Cl)c(-c2cc3c(s2)c(=O)n(-c2cncc4ccccc24)c(=O)n3CCC#N)c1 (single isomer, unassigned) [Example 1089, 3-(6-(2-chloro-5-methoxypyridin-3-yl)-3-(isoquinolin-4-yl)-2,4-dioxo-3,4-dihydrothieno[3,2-d]pyrimidin-1(2H)-yl)propanenitrile]
IC50 [1, 2]: > 1 µM
EC50 (SARS-CoV-2-NLuc; read-out: MPro EC50): > 1 µM

Cc1c(Cl)cncc1-n1c(=O)c2sc(-c3ccccc3Cl)cc2n(CCC#N)c1=O [Example 834]
IC50 [1, 2]: 0.0195 µM
EC50 (SARS-CoV-2-NLuc; [5]): 0.0342 µM

COc1ccc(Cl)c(-c2cc3[nH]c(=O)n(-c4cncc5c4cnn5CC(F)(F)F)c(=O)c3s2)c1 [Example 499]
IC50 [1, 2]: 1.92 µM
EC50 (SARS-CoV-2-NLuc; [3]): 6.95 µM

COc1cc(-c2cc3c(s2)c(=O)n(-c2cncc4c2c(C(F)(F)F)nn4COCC[Si](C)(C)C)c(=O)n3CCC#N)c(Cl)cc1F [Example 1046, 3-(6-(2-chloro-4-fluoro-5-methoxyphenyl)-2,4-dioxo-3-(3-(trifluoromethyl)-1-((2-(trimethylsilyl)ethoxy)methyl)-1H-pyrazolo[3,4-c]pyridin-4-yl)-3,4-dihydrothieno[3,2-d]pyrimidin-1(2H)-yl)propanenitrile]
IC50 ([1]; MPro IC50, recombinant SARS-CoV-2 Mpro 7.5 nM, fluorogenic peptide substrate 40 μM): 0.0358 µM
EC50 (SARS-CoV-2-NLuc; [5]): 0.129 µM

Cn1ncc2cncc(-n3c(=O)c4sc(-c5ccccc5C#N)cc4n(CCC#N)c3=O)c21 [Example 782, 2-(1-(2-cyanoethyl)-3-(1-methyl-1H-pyrazolo[4,3-c]pyridin-7-yl)-2,4-dioxo-1,2,3,4-tetrahydrothieno[3,2-d]pyrimidin-6-yl)benzonitrile]
IC50 [1, 2]: 0.0155 µM
EC50 (SARS-CoV-2-NLuc; [3]): 0.0398 µM

COc1cc(-c2cc3c(s2)c(=O)n(-c2cncc4nc(C)n(C)c24)c(=O)n3CCC#N)c(C#N)cc1F [Example 855]
IC50 [1, 2]: 0.019 µM
EC50 (SARS-CoV-2-NLuc; [3]): 0.498 µM

N#Cc1cc(-c2cc3[nH]c(=O)n(-c4cncc5ccccc45)c(=O)c3s2)c(Cl)cc1F [Example 646]
IC50 [1, 2]: 1.9 µM
EC50 (SARS-CoV-2-NLuc; [3]): 11.8 µM

O=c1[nH]c2cc(-c3cc4c(cc3Cl)OC(F)(F)O4)sc2c(=O)n1-c1cncc2ccccc12 [Example 348]
IC50 [1, 4]: 4.76 µM
EC50 (SARS-CoV-2-NLuc; [3]): 8.93 µM

COc1ccc(C#N)c(-c2cc3[nH]c(=O)n(-c4cncc5ccc(F)cc45)c(=O)c3s2)c1 [Example 589]
IC50 [1, 2]: 0.00501 µM
EC50 (SARS-CoV-2-NLuc; [3]): 0.0237 µM

O=c1[nH]c2cc(-c3ccccc3Cl)sc2c(=O)n1-c1cncc2ccccc12 [Example 1, 6-(2-chlorophenyl)-3-(isoquinolin-4-yl)thieno[3,2-d]pyrimidine-2,4(1H,3H)-dione]
IC50 [1, 4]: 0.0108 µM
EC50 (SARS-CoV-2-NLuc; [5]): 0.0289 µM

Cc1nc2cncc(-n3c(=O)c4sc(-c5ccc(F)cc5Cl)cc4n(CCC#N)c3=O)c2n1C (single isomer, unassigned) [Example 965, 3-(6-(2-chloro-4-fluorophenyl)-3-(1,2-dimethyl-1H-imidazo[4,5-c]pyridin-7-yl)-2,4-dioxo-3,4-dihydrothieno[3,2-d]pyrimidin-1(2H)-yl)propanenitrile]
IC50 [1, 2]: 0.0201 µM
EC50 (SARS-CoV-2-NLuc; read-out: MPro EC50): 0.0783 µM

O=c1[nH]c2cc(-c3cc(C4CC4)ccc3Cl)sc2c(=O)n1-c1cncc2ccccc12 [Example 351]
IC50 [1, 4]: 0.0196 µM
EC50 (SARS-CoV-2-NLuc; [3]): 0.0692 µM

COc1ccc(C#N)c(-c2cc3[nH]c(=O)n(-c4cncc(C)c4OCC(F)(F)F)c(=O)c3s2)c1 [Example 225]
IC50 [1, 4]: 0.0121 µM
EC50 (SARS-CoV-2-NLuc; [3]): 0.0877 µM

O=c1[nH]c2cc(-c3c(Cl)cccc3-c3ccncc3)ccc2c(=O)n1-c1cncc2ccccc12 [Example 329]
IC50 [1, 4]: 0.00977 µM
EC50 (SARS-CoV-2-NLuc; [3]): 0.0223 µM

COc1ncc(-c2cccc(Cl)c2-c2ccc3c(=O)n(-c4cncc5ccccc45)c(=O)[nH]c3c2)cc1C#N [Example 186]
IC50 [1, 4]: 0.112 µM
EC50 (SARS-CoV-2-NLuc; [3]): 0.0507 µM

COc1cc(-c2cc3c(s2)c(=O)n(-c2cncc4nc(C(F)(F)F)n(C)c24)c(=O)n3CCC#N)c(C#N)cc1F [Example 859]
IC50 [1, 2]: 0.0628 µM
EC50 (SARS-CoV-2-NLuc; [3]): 0.169 µM

COc1cc(-c2cc3c(s2)c(=O)n(-c2cncc4c2c(C)nn4C)c(=O)n3CCC#N)c(Cl)cc1F (single isomer, unassigned) [Example 1044, 3-(6-(2-chloro-4-fluoro-5-methoxyphenyl)-3-(1,3-dimethyl-1H-pyrazolo[3,4-c]pyridin-4-yl)-2,4-dioxo-3,4-dihydrothieno[3,2-d]pyrimidin-1(2H)-yl)propanenitrile]
IC50 [1, 2]: 0.00355 µM
EC50 (SARS-CoV-2-NLuc; read-out: MPro EC50): 0.00321 µM
